Laboratory results from ChEMBL document CHEMBL3867425, “Synthesis and cytotoxicity evaluation of aryl triazolic derivatives and their hydroxymethine homologues against B16 melanoma cell line” (Eur J Med Chem, 2016).
pIC50: −log10 of the molar value.

assay: Cytotoxicity against mouse B16 cells assessed as decrease in cell viability after 48 hrs by MTT assay; type: functional, cell-based; conditions: B16, 48 h

Point of comparison: CC1(C)OC[C@H](Cn2cc(-c3ccc4ccccc4c3)nn2)O1, pIC50 4.92. Against it:
- OC(c1ccc(C(F)(F)F)cc1)c1cn(Cc2ccccc2)nn1 (stereo unspecified) — lower, < 4.00
- CCOC(=O)Cn1cc(-c2ccc3ccccc3c2)nn1 — lower, < 4.00
- COc1ccc(-c2cn(CCO)nn2)cc1 — lower, < 4.00
- COc1ccc(-c2cn(Cc3ccccc3)nn2)c(OC)c1OC — 0.36 log units lower, 4.56
- CCOC(=O)Cn1cc(-c2ccc([N+](=O)[O-])cc2)nn1 — lower, < 4.00
- FC(F)(F)c1ccc(-c2cn(Cc3ccccc3)nn2)cc1 — lower, < 4.00
- CC1(C)OC[C@H](Cn2cc(-c3ccc(C(F)(F)F)cc3)nn2)O1 — lower, < 4.00
- OCCn1cc(-c2ccc3ccccc3c2)nn1 — lower, < 4.00
- COc1ccc(Cn2cc(C(O)c3ccc(C)cc3)nn2)cc1 (stereo unspecified) — lower, < 4.00
- c1ccc(Cn2cc(-c3ccc4ccccc4c3)nn2)cc1 — 0.49 log units higher, 5.41
- CCOC(=O)Cn1cc(-c2ccc(OC)c(OC)c2OC)nn1 — lower, < 4.00
- Cc1ccc(C(O)c2cn(C[C@H]3COC(C)(C)O3)nn2)cc1 (stereo partly specified) — lower, < 4.00
- COc1ccc(C(O)c2cn(C[C@H]3COC(C)(C)O3)nn2)c(OC)c1OC (stereo partly specified) — lower, < 4.00
- COc1ccc(-c2cn(C[C@H]3COC(C)(C)O3)nn2)cc1 — lower, < 4.00
- COc1ccc(C(O)c2cn(CCO)nn2)cc1 (stereo unspecified) — lower, < 4.00
- Cc1ccc(-c2cn(CC3COC(C)(C)O3)nn2)cc1 (racemic) — 0.54 log units lower, 4.38
- Cc1ccc(-c2cn(C[C@H]3COC(C)(C)O3)nn2)cc1 — lower, < 4.00
- OCCn1cc(-c2ccc(C(F)(F)F)cc2)nn1 — lower, < 4.00
- CC1(C)OCC(Cn2cc(-c3ccc([N+](=O)[O-])cc3)nn2)O1 (racemic) — lower, < 4.00
- CC1(C)OCC(Cn2cc(C(O)c3ccc(C(F)(F)F)cc3)nn2)O1 (racemic) — lower, < 4.00
- COc1ccc(Cn2cc(C(O)c3ccc([N+](=O)[O-])cc3)nn2)cc1 (stereo unspecified) — lower, < 4.00
- COc1ccc(C(O)c2cn(C[C@H]3COC(C)(C)O3)nn2)cc1 (stereo partly specified) — lower, < 4.00
- OC(c1ccc2ccccc2c1)c1cn(Cc2ccccc2)nn1 (stereo unspecified) — 0.38 log units lower, 4.54
- COc1ccc(-c2cn(C[C@H]3COC(C)(C)O3)nn2)c(OC)c1OC — lower, < 4.00
- COc1ccc(Cn2cc(C(O)c3ccc(OC)cc3)nn2)cc1 (stereo unspecified) — lower, < 4.00
- COc1ccc(Cn2cc(-c3ccc(C)cc3)nn2)cc1 — 0.21 log units lower, 4.71
- CC1(C)OCC(Cn2cc(C(O)c3ccc4ccccc4c3)nn2)O1 (racemic) — 0.35 log units lower, 4.57
- COc1ccc(Cn2cc(-c3ccc(OC)cc3)nn2)cc1 — lower, < 4.00
- CC1(C)OC[C@H](Cn2cc(-c3ccc([N+](=O)[O-])cc3)nn2)O1 — lower, < 4.00
- Cc1ccc(C(O)c2cn(CC3COC(C)(C)O3)nn2)cc1 (racemic) — lower, < 4.00
- CC1(C)OCC(Cn2cc(-c3ccc4ccccc4c3)nn2)O1 (racemic) — 0.26 log units higher, 5.18
- Cc1ccc(-c2cn(Cc3ccccc3)nn2)cc1 — lower, < 4.00
- CCOC(=O)Cn1cc(C(O)c2ccc3ccccc3c2)nn1 (stereo unspecified) — lower, < 4.00
- Cc1ccc(C(O)c2cn(Cc3ccccc3)nn2)cc1 (stereo unspecified) — lower, < 4.00
- COc1ccc(Cn2cc(-c3ccc(C(F)(F)F)cc3)nn2)cc1 — within 0.2 log units, 4.76
- CC1(C)OC[C@H](Cn2cc(C(O)c3ccc([N+](=O)[O-])cc3)nn2)O1 (stereo partly specified) — lower, < 4.00
- COc1ccc(Cn2cc(-c3ccc4ccccc4c3)nn2)cc1 — lower, < 4.00
- COc1ccc(-c2cn(Cc3ccccc3)nn2)cc1 — lower, < 4.00
- Cc1ccc(-c2cn(CCO)nn2)cc1 — lower, < 4.00
- COc1ccc(Cn2cc(-c3ccc([N+](=O)[O-])cc3)nn2)cc1 — 0.20 log units lower, 4.72
- CC1(C)OCC(Cn2cc(-c3ccc(C(F)(F)F)cc3)nn2)O1 (racemic) — within 0.2 log units, 4.87
- COc1ccc(Cn2cc(-c3ccc(OC)c(OC)c3OC)nn2)cc1 — lower, < 4.00
- O=[N+]([O-])c1ccc(-c2cn(Cc3ccccc3)nn2)cc1 — 0.37 log units higher, 5.29
- COc1ccc(Cn2cc(C(O)c3ccc(OC)c(OC)c3OC)nn2)cc1 (stereo unspecified) — lower, < 4.00
- COc1ccc(C(O)c2cn(CCO)nn2)c(OC)c1OC (stereo unspecified) — lower, < 4.00
